The target in this assay is T1, CB1 receptor (UniProt P20272).
T1 construct: other: compound at 10^−7 M; radioligand [3H]-CP55940; other: compound at 10^−8 M
The assay is described as follows: In-vitro determination of affinity to CB1/CB2-receptors (radioligand [3H]-CP55940 binding). To be noted: for Inhibition [%], 10^−7 M: compound at 10^−7 M; for Inhibition [%], 10^−8 M: compound at 10^−8 M. Here is the method:
The in-vitro determination of the affinity of the inventive substituted pyrazoline compounds to CB1/CB2-Rezeptors is carried out as described in the publication of Ruth A. Ross, Heather C. Brockie et al., “Agonist-inverse agonist characterization at CB1 and CB2 cannabinoid receptors of L-759633, L759656 and AM630”, British Journal of Pharmacology, 126, 665-672, (1999), whereby the transfected human CB1 and CB2 receptors of Receptor Biology, Inc. are used. The radioligand used for both receptors is [^3H]-CP55940. The respective parts of the description is hereby incorporated by reference and forms part of the present disclosure.
Binding affinity to CB1 receptor was evaluated according to a modification of the method described by Govaerts et al., Eur J Pharmac Sci 23, 233-243 (2004). The respective parts of the description is hereby incorporated by reference and forms part of the present disclosure.
Briefly, cerebellum from male wistar rats (250-300 g) were carefully dissected on ice and homogenates were prepared with Potter-Helveheim in a cold 50 mM Tris-HCl solution containing 5 mM MgCl2, 1 mM EDTA and 0.25 M sucrose, pH 7.4. The suspension was centrifuged at 1,000×g for 5 minutes. The supernatants were collected and centrifuged 50,000×g for 15 minutes. The resulting pellets were then resuspended in Tris-HCl buffer without sucrose, homogenized and incubated for 15 min at 37° C. in an orbital shaker bath and centrifuged again at 50,000×g for 15 min. Pellets were weighted, resuspended in Tris-HCl buffer without sucrose, homogenized with Ultraturrax at 13,500 rpm for 3×5 seconds and alicuoted in 0.9 ml volumes in Eppendorf tubes. Alicuotes were centrifuged at 20,800×g for 5 minutes, supernatants discarded and pellets were frozen at −80° C. until use. Total protein concentration was determined using the Bio-Rad Lowry method based kit. Competitive binding experiments were performed in presence of 1 nM [^3H]-CP 55,940 in siliconized glass tubes containing 100 μg protein/tube resuspended in 1 ml final volume of 50 mM Tris-HCl, 5 mM MgCl2, 1 mM EDTA, 0.5% (w/v) bovine serum albumin, pH 7.4. Compounds were present at various concentrations and the non specific binding was determined in the presence of 10 μM HU-210. After 1 hour incubation at 30° C., the suspension was rapidly filtered through 0.5% PEI pre-treated GF/B fiber filters on a 96-well harvester and washed 3 times with 3 ml ice-cold binding buffer without bovine serum albumin. Radioactivity on filters was measured with Wallac Winspectral 1414 counter by liquid scintillation in 6 ml Ecoscint H (National Diagnostics, U.K.). Assays were made in triplicates.
Binding data were analyzed by non-linear regression with the software GraphPad Prism Version 3.03.

Structures can show the parent of a compound that is named as a salt.

`Cl.O=C(NN1CCCCC1)C1=NN(c2ccc(Cl)cc2Cl)C(c2ccc(O)cc2)C1` (centres unmarked) [Example 172, 1-(2,4-Dichloro-phenyl)-5-(4-hydroxy-phenyl)-4,5-dihydro-1H-pyrazole-3-carboxylic acid piperidin-1-ylamide hydrochloride]: the “Inhibition [%], 10^−7 M” value came out at 1.4% and the “Inhibition [%], 10^−8 M” value was 5.6%.

As to `Cl.O=C(NN1CCCCCCC1)C1=NN(c2ccc(Cl)cc2Cl)C(c2ccc(Cl)cc2)C1` (centres unmarked) [Example 145, 5-(4-Chloro-phenyl)-1-(2,4-dichloro-phenyl)-4,5-dihydro-1H-pyrazole-3-carboxylic acid azocan-1-ylamide hydrochloride], the “Inhibition [%], 10^−7 M” value was 57.6% and the “Inhibition [%], 10^−8 M” value turned out to be 12.3%.

For the molecule `COc1ccc(C2CC(C(=O)NC3CCCCCC3)=NN2c2ccc(Cl)cc2Cl)cc1` (centres unmarked) [Example 132, 5-(4-methoxyphenyl)-1-(2,4-dichloro-phenyl)-4,5-dihydro-1H-pyrazole-3-carboxylic acid cycloheptylamide], the “Inhibition [%], 10^−7 M” value stood at 37.8% and the “Inhibition [%], 10^−8 M” value turned out to be 18.2%.

As to `O=C(NCCC1CCCC1)C1=NN(c2ccc(Cl)cc2Cl)C(c2ccc(Cl)cc2)C1` (centres unmarked) [Example 87, 5-(4-Chloro-phenyl)-1-(2,4-dichloro-phenyl)-4,5-dihydro-1H-pyrazole-3-carboxylic acid (2-cyclopentyl-ethyl)-amide], the “Inhibition [%], 10^−7 M” value is 15.2% and the “Inhibition [%], 10^−8 M” value is recorded as −2.4%.

In the case of `COc1ccc(C2CC(C(=O)NN3CCCCCCC3)=NN2c2ccc(Cl)cc2Cl)cc1` (centres unmarked) [Example 148, 5-(4-methoxy-phenyl)-1-(2,4-dichloro-phenyl)-4,5-dihydro-1H-pyrazole-3-carboxylic acid azocan-1-ylamide], the “Inhibition [%], 10^−7 M” value is 80.3% and the “Inhibition [%], 10^−8 M” value worked out at 56.1%.

Consider `CCCCNC(=O)C1=NN(c2ccc(Cl)cc2Cl)C(c2ccc(Cl)cc2)C1` (centres unmarked) [Example 72, 5-(4-Chloro-phenyl)-1-(2,4-dichloro-phenyl)-4,5-dihydro-1H-pyrazole-3-carboxylic acid butylamide], for which the “Inhibition [%], 10^−7 M” value turned out to be 19.6% and the “Inhibition [%], 10^−8 M” value is on record as −10.2%.

For the molecule `Cl.O=C(NN1CCCCCCC1)C1=NN(c2ccc(Cl)cc2Cl)[C@@H](c2ccc(Cl)cc2)C1` [Example 176, (R)-5-(4-Chloro-phenyl)-1-(2,4-dichloro-phenyl)-4,5-dihydro-1H-pyrazole-3-carboxylic acid azocan-1-ylamide hydrochloride], the “Inhibition [%], 10^−7 M” value came out at 71.3% and the “Inhibition [%], 10^−8 M” value amounted to 29.5%.

For `Cl.O=C(NN1CCc2ccccc21)C1=NN(c2ccc(Cl)cc2Cl)[C@H](c2ccc(Cl)cc2)C1` [Example 182, (S)-5-(4-Chloro-phenyl)-1-(2,4-dichloro-phenyl)-4,5-dihydro-1H-pyrazole-3-carboxylic acid (2,3-dihydro-indol-1-yl)-amide hydrochloride], the “Inhibition [%], 10^−7 M” value was determined as 31.7% and the “Inhibition [%], 10^−8 M” value is 18.8%.

As to `O=C(NN1CC2CCCC2C1)C1=NN(c2ccc(Cl)cc2Cl)[C@H](c2ccc(Cl)cc2)C1` (stereo partly drawn) [Example 184, (S)-5-(4-Chloro-phenyl)-1-(2,4-dichloro-phenyl)-4,5-dihydro-1H-pyrazole-3-carboxylic acid (hexahydro-cyclopenta[c]pyrrol-2-yl)-amide hydrochloride], the “Inhibition [%], 10^−7 M” value amounted to 24.8% and the “Inhibition [%], 10^−8 M” value came out at 5.7%.

Regarding `O=C(NN1CCCCCC1)C1=NN(c2ccc(Cl)cc2Cl)[C@H](c2ccc(Cl)cc2)C1` [Example 185, (S)-5-(4-Chloro-phenyl)-1-(2,4-dichloro-phenyl)-4,5-dihydro-1H-pyrazole-3-carboxylic acid azepan-1-ylamide], the “Inhibition [%], 10^−7 M” value was determined as 34.1% and the “Inhibition [%], 10^−8 M” value is on record as −11.6%.

For `Cl.O=C(NN1CCCCCCC1)C1=NN(c2ccc(Cl)cc2Cl)[C@H](c2ccc(Cl)cc2)C1` [Example 177, (S)-5-(4-Chloro-phenyl)-1-(2,4-dichloro-phenyl)-4,5-dihydro-1H-pyrazole-3-carboxylic acid azocan-1-ylamide hydrochloride], the “Inhibition [%], 10^−7 M” value is 22.2% and the “Inhibition [%], 10^−8 M” value is recorded as −5.4%.

As for `CN(C)CCCNC(=O)C1=NN(c2ccc(Cl)cc2Cl)C(c2ccc(Cl)cc2)C1` (centres unmarked) [Example 73, 5-(4-Chloro-phenyl)-1-(2,4-dichloro-phenyl)-4,5-dihydro-1H-pyrazole-3-carboxylic acid (3-dimethylamino-propyl)-amide], the “Inhibition [%], 10^−7 M” value is −18.9% and the “Inhibition [%], 10^−8 M” value is listed as 15.7%.

In the case of `O=C(NC1CCCCCC1)C1=NN(c2ccc(Cl)cc2Cl)[C@H](c2ccc(Cl)cc2)C1` [Example 186, (S)-5-(4-Chloro-phenyl)-1-(2,4-dichloro-phenyl)-4,5-dihydro-1H-pyrazole-3-carboxylic acid cycloheptylamide], the “Inhibition [%], 10^−7 M” value is on record as 28.1% and the “Inhibition [%], 10^−8 M” value is 3.2%.

In the case of `CN1CCN(C(=O)C2=NN(c3ccc(Cl)cc3Cl)C(c3ccc(Cl)cc3)C2)CC1.Cl` (centres unmarked) [Example 195, [5-(4-Chloro-phenyl)-1-(2,4-dichloro-phenyl)-4,5-dihydro-1H-pyrazole-3-yl]-(4-methyl-piperazin-1-yl)-methanone hydrochloride], the “Inhibition [%], 10^−7 M” value was determined as 5.8% and the “Inhibition [%], 10^−8 M” value worked out at 4.7%.

Consider `Cl.O=C(NN1CCCCCC1)C1=NN(c2ccc(Cl)cc2Cl)[C@H](c2ccc(Cl)cc2)C1` [Example 183, (S)-5-(4-Chloro-phenyl)-1-(2,4-dichloro-phenyl)-4,5-dihydro-1H-pyrazole-3-carboxylic acid azepan-1-ylamide hydrochloride], for which the “Inhibition [%], 10^−7 M” value turned out to be 31.9% and the “Inhibition [%], 10^−8 M” value was determined as 3.2%.

In the case of `O=C(O)C1=NN(c2ccc(Cl)cc2Cl)C(c2ccc(O)cc2)C1` (centres unmarked) [Example 180, 1-(2,4-Dichloro-phenyl)-5-(4-hydroxy-phenyl)-4,5-dihydro-1H-pyrazole-3-carboxylic acid], the “Inhibition [%], 10^−7 M” value is reported as 9.3% and the “Inhibition [%], 10^−8 M” value was 4.7%.

`Cl.O=C(NN1CCc2ccccc21)C1=NN(c2ccc(Cl)cc2Cl)C(c2ccc(F)cc2)C1` (centres unmarked) [Example 179, 1-(2,4-Dichloro-phenyl)-5-(4-fluoro-phenyl)-4,5-dihydro-1H-pyrazole-3-carboxylic acid (2,3-dihydro-indol-1-yl)-amide hydrochloride]: the “Inhibition [%], 10^−7 M” value worked out at 33.9% and the “Inhibition [%], 10^−8 M” value turned out to be 11.5%.

On to `COC[C@H]1CCCN1NC(=O)C1=NN(c2ccc(Cl)cc2Cl)C(c2ccc(Cl)cc2)C1` (some centres unmarked) [Example 13, 5-(4-Chloro-phenyl)-1-(2,4-dichloro-phenyl)-4,5-dihydro-1H-pyrazole-3-carboxylic acid (2-methoxymethyl-pyrrolidin-1-yl)-amide], for which the “Inhibition [%], 10^−7 M” value was 31.8% and the “Inhibition [%], 10^−8 M” value stood at 14.3%.

As to `COc1ccc(C2CC(C(=O)O)=NN2c2ccc(Cl)cc2Cl)cc1` (centres unmarked) [Example 127, 1-(2,4-Dichloro-phenyl)-5-(4-methoxy-phenyl)-4,5-dihydro-1H-pyrazole-3-carboxylic acid], the “Inhibition [%], 10^−7 M” value was determined as 7.8% and the “Inhibition [%], 10^−8 M” value was 7.4%.

The values are drawn from patent US8207156B2, “Substituted pyrazoline compounds, their preparation and use as medicaments” (Laboratorios Del Dr. Esteve, S.A., priority 2005, dated 2012).
